Results taken from publication PMC10135378, “Synthesis of Novel N-Heterocyclic Carbene-Ruthenium (II) Complexes, “Precious” Tools with Antibacterial, Anticancer and Antioxidant Properties” (Antibiotics, 2023).

Key:
[1] = system: MDA-MB-231 cells; experiment: MTT assay, anticancer activity on MDA-MB-231 cells; type: cell-based, human; conditions: for IC50: MTT, 72 h exposure, 0.1-100 µM; for fold more active against MDA-MB-231 than MCF-10A cells: ratio of IC50 values MCF-10A / MDA-MB-231
Method: (§1) The anticancer activity of all the synthesized Ru-NHC complexes (RANHC I-VI) was studied in two human breast cancer cell lines, namely the estrogen receptor positive (ER+) MCF-7 cells and the triple negative MDA-MB-231 cells (ER-, PR-, and HER-2/Neu not overexpressed), and neuroblastoma cells, i.e., SH-SY5Y. First, the cells were exposed for 72 h at different concentrations of the studied complexes (from 0.1 to 100 µM) and then their viability was checked by MTT assay.
(§2) The adopted cells (breast cancer MCF-7 and MDA-MB-231 and human mammary epithelial MCF-10A cells) were purchased from American Type Culture Collection (ATCC, Manassas, VA, USA) and cultured as indicated. The mouse embryonic fibroblast BALB/3T3 and neuroblastoma SH-SY5Y were also obtained from American Type Culture Collection (ATCC, Manassas, VA, USA) and cultured in DMEM high glucose supplemented with 100 U mL^−1 penicillin/streptomycin and 10% bovine calf serum (BCS) or 10% fetal bovine serum (FBS), respectively.
(§3) MTT assay (Sigma Aldrich (St. Louis, MO, USA)) was used for the in vitro anticancer activity evaluation, as previously reported. The Ru-NHC complexes were employed at different concentrations (0.1–1–10–25–50–100 μM) for 72 h. The IC50 values were calculated from the percent (%) of control using GraphPad Prism 9 (GraphPad Software, La Jolla, CA, USA).

[2] = system: MCF-7 cells; experiment: MTT assay, anticancer activity on MCF-7 cells; type: cell-based, human; conditions: 72 h exposure, 0.1-100 µM
Method: as §1, §2, §3

[3] = system: SH-SY5Y cells; experiment: MTT assay, anticancer activity on SH-SY5Y neuroblastoma cells; type: cell-based; conditions: 72 h exposure, 0.1-100 µM
Method: as §1, §2, §3

[4] = system: BALB/3T3 cells; experiment: MTT assay, non-tumoral BALB/3T3 fibroblasts; type: cell-based; conditions: 72 h exposure, non-tumoral mouse embryonic fibroblasts
Excerpt: Additionally, we investigated the selectivity of all the synthesized Ru-NHC complexes on the cancer cells by studying their capability to interfere with the growth of two non-tumoral cells, namely the MCF-10A and BALB/3T3 cells.
as §2, §3

[5] = system: Escherichia coli (ATCC 25922); experiment: MIC/MBC broth dilution, E. coli; type: cell-based; conditions: broth dilution, 37 °C, 18 h
Method: One Gram-negative (Escherichia coli (ATCC® 25922TM)) and two Gram-positive bacterial strains (Enterococcus faecalis (ATCC® 19433TM) and Staphylococcus aureus (ATCC® 23235TM)] were used for MIC and MBC values determination, according to CLSI guidelines. MIC represents the lowest concentration of compound inhibiting the visible microbial growth and expressed as μg/mL; MBC is the lowest concentration able to kill the bacteria. Both determinations were performed by the broth dilution method. Bacteria were grown overnight in LB medium (2%), then diluted to a density of […] colony forming units (CFUs) per mL, plated in sterile 96-well microplates, obtaining about 10^5 cells/ well. Increasing concentrations of the Ru-NHC complexes (1, 10, 25, 50, 70, 100 µg/mL) were used. After incubation at 37 °C for 18 h (overnight), bacterial growth was checked at a wavelength of 600 nm using a Multiskan spectrophotometer (model Multiskan Ex Microplate; Thermo Scientific, Nyon, Switzerland) and MIC or MBC values were determined, comparing cell density with a positive control (bacterial cells grown in LB medium were added with only the vehicle, DMSO). Each experiment was carried out five times, in triplicate. Ampicillin (Sigma Aldrich A9393) was used as the control for strain sensitivity.

[6] = ABTS radical scavenging assay; conditions: for IC50: 5 min, room temperature, 730 nm
Excerpt: To further analyze the Ru-NHC complexes antiradical potential, we examined their capability to interfere with the ABTS radical cation, a well-known protonated radical with a characteristic maximal absorbance at 730 nm, which diminishes with the scavenging of the radical proton. The assay measures radical scavenging by the electron donation. The outcomes in terms of ABTS% scavenging activity are reported in Figure 7 and IC50 values of Ru-NHC complexes, together with the standard Trolox, on ABTS radical are summarized in Table 3 and Table S3.
The radical scavenging properties of the Ru-NHC complexes on a 2,2′-azino-bis(3-ethylbenzothiazoline-6-sulfonate) radical cation (ABTS^•+) were calculated as described by Fazio et al., with few adjustments. Briefly, 2 mM ABTS and 70 mM potassium persulfate water solutions were mixed and incubated to obtain ABTS^•+ radical stock solution (16 h, room temperature, in the dark). ABTS solution was diluted in ethanol to obtain an absorbance of 0.70 ± 0.02 at 730 nm, prior to use. Then, 2 μL of each Ru-NHC complex at different concentrations, properly dissolved in DMSO, were mixed with 198 μL of the ABTS^•+ solution in a 48-well plate obtaining the following concentrations: 0.1, 1, 10, 50, and 100 µg/mL. The solutions were vigorously shaken and incubated (5 min, room temperature, in the dark). The ABTS scavenging activity was determined at 730 nm, using a microplate reader. The control was prepared mixing 2 μL of DMSO with 198 μL of the ABTS^•+ solution. The ABTS radical scavenging was expressed as inhibition percentages (%IABTS) of each complex compared to the control, according to the formula: %IABTS=A0−A/A0×100 where A0 is the absorbance at 730 nm of the control reaction and A is the absorbance at 730 nm in the presence of samples.
IC50 values for the Ru complexes were calculated from the %IABTS using GraphPad Prism 9 software (GraphPad Inc., San Diego, CA, USA). Trolox was employed as the positive control.

Row | Compound | IC50 [1] [µM] | IC50 [2] [µM] | IC50 [3] [µM] | IC50 [6] [µM] | ABTS IC50 fold lower than that of Trolox ([6]; IC50 ratio to Trolox) | IC50 [4] [µM] | M.I.C. E. coli [5] [µg/mL] | fold more active against MDA-MB-231 than MCF-10A cells [1]
1 | COC(Cn1ccn(C)[c]1=[Ru]([Cl])[Cl])c1ccccc1.Cc1ccc(C(C)C)cc1 (stereo not drawn) [RANHC-I] | > 100 | > 100 | 90 ± 1.2 | 13.5 ± 0.7 |  | > 100 | 50 | 
2 | COC(Cn1ccn(C)[c]1=[Ru]([I])[I])c1ccccc1.Cc1ccc(C(C)C)cc1 (stereo not drawn) [RANHC-II] | > 100 | > 100 | > 100 | 16.1 ± 0.7 |  | > 100 | 50 | 
3 | COC(Cn1ccn(C)[c]1=[Ru]1[O]C(=O)C(=O)[O]1)c1ccccc1.Cc1ccc(C(C)C)cc1 (stereo not drawn) [RANHC-IV] | > 100 | > 100 | 88.9 ± 0.9 | 8.57 ± 1.1 |  | > 100 | 50 | 

The next lines start with results.

Row | IC50 [1] [µM] | IC50 [2] [µM] | IC50 [3] [µM] | IC50 [6] [µM] | ABTS IC50 fold lower than that of Trolox ([6]; IC50 ratio to Trolox) | Compound | IC50 [4] [µM] | M.I.C. E. coli [5] [µg/mL] | fold more active against MDA-MB-231 than MCF-10A cells [1]
4 | > 100 | > 100 | > 100 | 5.53 ± 1.1 | about 17 fold | CN1C=CN2CC(c3ccccc3)[O+](C)[Ru]([Cl])=[C]12.Cc1ccc(C(C)C)cc1.F[P-](F)(F)(F)(F)F (stereo not drawn) [RANHC-III] | > 100 | 25 | 
5 | 24.1 ± 0.7 | 26.1 ± 0.9 | 48.4 ± 0.8 | 11.4 ± 0.8 |  | COC(Cn1c(Cl)c(Cl)n(C)[c]1=[Ru]([Cl])[Cl])c1ccccc1.Cc1ccc(C(C)C)cc1 (stereo not drawn) [RANHC-V] | > 100 | 50 | about 3.3 fold
6 | 40.6 ± 1.1 | 54.8 ± 1.1 | 66.9 ± 0.8 | 17.2 ± 1.1 |  | COC(Cn1[c](=[Ru]([Cl])[Cl])n(C)c2ccccc21)c1ccccc1.Cc1ccc(C(C)C)cc1 (stereo not drawn) [RANHC-VI] | 39.1 ± 1.1 | 25 | 2.2 fold
